Drawing on publication PMC10968976, “Targeting CDK9 in Cancer: An Integrated Approach of Combining In Silico Screening with Experimental Validation for Novel Degraders” (Current Issues in Molecular Biology, 2024), this text covers EC50 for 2 compounds.

Like-named read-outs stand apart in the source and are kept apart here.

For one experiment, the system named is NCI-H358 cells. Kind of experiment: Cell viability (cell-titer-glo), NCI-H358. In kind it is cell-based. The note with it: Homo sapiens, NIH H-358 cell line, 48 to 72 h, read-out: Estimated EC50. How it is done:
(§1) The cell lines used in this study were purchased from ATCC (https://www.atcc.org, accessed on 18 December 2023) and maintained under standard conditions at 37 °C with a 5% CO2 atmosphere. NCI-H-358 cells were cultivated in 1X RPMI 1640 medium, while MIA-PaCa2 cells were cultured using 1X DMEM. Both culture media were supplemented with 10% fetal bovine serum and 1X Penicillin/Streptomycin (Gibco). For culturing the Melma-3M cells, IMDM media fortified with 20% fetal bovine serum and 1X Penicillin/Streptomycin was used. […]
(§2) Briefly, for cell viability experiments, after splitting, cells from each respective cell line were plated onto 96-well plates (MSP, Cat # CT-229185) at a density of about 1 × 10^4 cells/mL and 200 µL per well using the appropriate cell culture media after about 24 h at 37 °C, the cell media in each 96-well plate were replaced with media containing the various test compounds at varying concentrations. […] Each plate was gently mixed for ca. 10 min at room temperature and then transferred to a plate reader (Bio-Tek, Synergy HTX, Winooski, VT, USA, multimode reader) for chemiluminescence measurement as a proportional indicator of cell viability.
(§3) TB003 and TB008 have also been evaluated for cell growth inhibition and killing using two cell lines, NCI-H358, a non-small cell lung carcinoma-derived cell line, and MIA-PaCa-2, a pancreatic carcinoma-derived cell line. […]

Another experiment has as its system MIA-PaCa-2 cells. Kind of experiment: Cell viability (cell-titer-glo), MIA-PaCa-2. The note with it: MIA-PaCa 2 cell line, 48 to 72 h, read-out: Estimated EC50. In kind it is cell-based. How it is done: as §1, §2, §3

Take `CC(=O)O[C@H]1C(=O)[C@@]2(C)[C@H]([C@H](OC(=O)c3ccccc3)[C@]3(O)C[C@H](OC(=O)[C@H](O)[C@@H](NC(=O)c4ccccc4)c4ccccc4)C(C)=C1C3(C)C)[C@]1(OC(C)=O)CO[C@@H]1C[C@@H]2O` [Paclitaxel, paclitaxel]: the results for the EC50 in the experiment with NCI-H358 cells and in the experiment with MIA-PaCa-2 cells (Homo sapiens) were 75 µM and 10 µM, respectively. With `O=C1[O][Pt]2([NH][C@@H]3CCCC[C@H]3[NH]2)[O]C1=O` [Oxaliplatin, oxaliplatin], in the experiment on MIA-PaCa-2 cells, the concentration for a half-maximal effect (EC50) (commonly the concentration at which the effect is half-maximal) was 100 µM.
